In US20230083012A1, “DIHYDROPYRIMIDINE DERIVATIVES AND USES THEREOF IN THE TREATMENT OF HBV INFECTION OR OF HBV-INDUCED DISEASES” (priority 2019, published 2023):
Where two headings read alike, the source gives them in different places.

Assays:
HBV = test: Anti-HBV activity in HepG2.2.15 cells (HBV DNA in culture medium by qPCR); format: cell-based; conditions: HepG2.2.15 cells, 6 days treatment, HBV DNA in culture medium quantified by real-time PCR, read-out: EC50
How it was run: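 Secreted HBV DNA was measured by real-time PCR after 6-day compound exposure of HepG2.2.15 cells (2% FBS, 37 °C, re-dosed after 3 days), giving EC50 from 8-point 1:3 series starting at 10 or 1 uM. Cytotoxicity (CC50) run separately at lower cell density, top 100 uM.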

[1] = Cytotoxicity determination in HepG2.2.15 cells (CCK-8 cell viability); format: cell-based; conditions: human, 6 days treatment, CCK-8 assay, highest concentration 100 uM
How it was run: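 Viability measured by CCK-8 absorbance (450 nm, 630 nm reference, 2.5 h at 37° C) after six days of treatment, medium and compound renewed on day 3. Top concentration 100 uM, eight threefold dilutions in triplicate; cells plated at 5,000/well in 2% FBS medium; CC50 derived.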

[2] = Hepatitis B virus, HepG2.2.15, 144 h

Structure (SMILES)	EC50 (HBV; [2]) [µM]	CC50 at 6 days [1] [µM]	EC50 (HBV) [µM]
CCOC(=O)C1=C(CN2CC(F)(F)[C@H]3[C@@H]2CCN3CCC(C)(C)C(=O)O)NC(c2nc(C)cs2)=N[C@H]1c1cccc(F)c1C (single isomer, unassigned) [Compound 118]	0.0054	12.7	–
CCOC(=O)C1=C(CN2C[C@H](F)[C@H]3[C@@H]2CCN3CCC(C)(C)C(=O)O)NC(c2nccs2)=N[C@H]1c1cccc(F)c1C (single isomer, unassigned) [Compound 119]	0.0555	20.2	–
[H][C@]1(N2CC[C@H]3[C@@H]2C(F)(F)CN3CC2=C(C(=O)OC)[C@H](c3cccc(F)c3F)N=C(c3nccs3)N2)C[C@@]2(C[C@@H](C(=O)O)C2)C1 (single isomer, unassigned) [Compound 120A]	0.012	28.1	–
[H][C@]1(N2CC[C@H]3[C@@H]2C(F)(F)CN3CC2=C(C(=O)OC)[C@H](c3cccc(F)c3F)N=C(c3nccs3)N2)C[C@]2(C[C@@H](C(=O)O)C2)C1 (single isomer, unassigned) [Compound 120B]	–	19.9	0.013
CCOC(=O)C1=C(CN2CC(F)(F)[C@H]3[C@@H]2CCN3C[C@@H](CC)C(=O)O)NC(c2nccs2)=N[C@@H]1c1ccc(F)nc1C (single isomer, unassigned) [Compound 122A, 2-(((cis)-4-((5-(ethoxycarbonyl)-6-(6-fluoro-2-methylpyridin-3-yl)-2-(thiazol-2-yl)-3,6-dihydropyrimidin-4-yl)methyl)-6,6-difluorohexahydropyrrolo[3,2-b]pyrrol-1(2H)-yl)methyl)butanoic acid]	0.006	> 100	–
CCOC(=O)C1=C(CN2CC(F)(F)[C@H]3[C@@H]2CCN3[C@H]2C[C@@H](CC(=O)O)C2)NC(c2nccs2)=N[C@H]1c1cccc(F)c1C (single isomer, unassigned) [Compound 123A]	0.008	18.6	–
CCOC(=O)C1=C(CN2CC(F)(F)[C@H]3[C@@H]2CCN3[C@H]2C[C@H](CC(=O)O)C2)NC(c2nccs2)=N[C@H]1c1cccc(F)c1C (single isomer, unassigned) [Compound 123B]	0.009	16.1	–
CCOC(=O)C1=C(CN2CC(F)(F)[C@H]3[C@@H]2CCN3c2nc(C(=O)O)cs2)NC(c2nccs2)=N[C@H]1c1cccc(F)c1C (single isomer, unassigned) [Compound 124]	0.0242	7.7	–
COC(=O)C1=C(CN2CC(F)(F)[C@H]3[C@@H]2CCN3CCC(C)(C)C(=O)O)NC(c2ncoc2C)=N[C@H]1c1ccc(F)cc1Cl (single isomer, unassigned) [Compound 125, 4-((cis)-4-((6-(2-chloro-4-fluorophenyl)-5-(methoxycarbonyl)-2-(5-methyloxazol-4-yl)-3,6-dihydropyrimidin-4-yl)methyl)-6,6-difluorohexahydropyrrolo[3,2-b]pyrrol-1(2H)-yl)-2,2-dimethylbutanoic acid]	0.0093	58.4	–
COC(=O)C1=C(CN2CC(F)(F)[C@H]3[C@@H]2CCN3CCC(C)(C)C(=O)O)NC(c2nccs2)=N[C@H]1c1ccc(F)c(F)c1Cl (single isomer, unassigned) [Compound 126]	0.0034	27.2	–
COC(=O)C1=C(CN2CC(F)(F)[C@H]3[C@@H]2CCN3CCC(C)(C)C(=O)O)NC(c2nccs2)=N[C@H]1c1ccc(F)cc1Cl (single isomer, unassigned) [Compound 127, 4-((cis)-4-((6-(2-Chloro-4-fluorophenyl)-5-(methoxycarbonyl)-2-(thiazol-2-yl)-3,6-dihydropyrimidin-4-yl)methyl)-6,6-difluorohexahydropyrrolo[3,2-b]pyrrol-1(2H)-yl)-2,2-dimethylbutanoic acid]	0.0016	47.2	–
COC(=O)C1=C(CN2CC(F)(F)[C@H]3[C@@H]2CCN3CCC(C)(C)C(=O)O)NC(c2nccs2)=N[C@H]1c1cccc(F)c1Cl (single isomer, unassigned) [Compound 128, 4-((cis)-4-((6-(2-Chloro-3-fluorophenyl)-5-(methoxycarbonyl)-2-(thiazol-2-yl)-3,6-dihydropyrimidin-4-yl)methyl)-6,6-difluorohexahydropyrrolo[3,2-b]pyrrol-1(2H)-yl)-2,2-dimethylbutanoic acid]	0.0008	40.1	–
CCOC(=O)C1=C(CN2CC(F)(F)[C@H]3[C@@H]2CCN3CC[C@H]2C[C@@H](C(=O)O)C2)NC(c2nccs2)=N[C@H]1c1cccc(F)c1C (single isomer, unassigned) [Compound 129A]	0.0077	10.3	–
CCOC(=O)C1=C(CN2CC(F)(F)[C@H]3[C@@H]2CCN3CC[C@H]2C[C@H](C(=O)O)C2)NC(c2nccs2)=N[C@H]1c1cccc(F)c1C (single isomer, unassigned) [Compound 129B]	0.0029	12.4	–
CCOC(=O)C1=C(CN2CC(F)(F)[C@H]3[C@@H]2CCN3C[C@@H]2CC[C@@H]2C(=O)O)NC(c2nccs2)=N[C@H]1c1cccc(F)c1C (single isomer, unassigned) [Compound 130A]	0.0076	22.4	–
CCOC(=O)C1=C(CN2CC(F)(F)[C@H]3[C@@H]2CCN3C[C@H]2CC[C@H]2C(=O)O)NC(c2nccs2)=N[C@H]1c1cccc(F)c1C (single isomer, unassigned) [Compound 130B]	< 0.0005	18.2	–
COC(=O)C1=C(CN2CC(F)(F)[C@H]3[C@@H]2CCN3C[C@@H](C)C(=O)O)NC(c2nccs2)=N[C@H]1c1cccc(F)c1C (single isomer, unassigned) [Compound 131A, 3-((cis)-6,6-Difluoro-4-(((S*)-6-(3-fluoro-2-methylphenyl)-5-(methoxycarbonyl)-2-(thiazol-2-yl)-3,6-dihydropyrimidin-4-yl)methyl)hexahydropyrrolo[3,2-b]pyrrol-1(2H)-yl)-2-methylpropanoic acid]	–	44.6	0.0005
COC(=O)C1=C(CN2CC(F)(F)[C@H]3[C@@H]2CCN3C[C@@H](C)C(=O)O)NC(c2nccs2)=N[C@H]1c1cccc(F)c1Cl (single isomer, unassigned) [Compound 132A, 3-((cis)-4-((6-(2-Chloro-3-fluorophenyl)-5-(methoxycarbonyl)-2-(thiazol-2-yl)-3,6-dihydropyrimidin-4-yl)methyl)-6,6-difluorohexahydropyrrolo[3,2-b]pyrrol-1(2H)-yl)-2-methylpropanoic acid]	< 0.0005	40.7	–
COC(=O)C1=C(CN2CC(F)(F)[C@H]3[C@@H]2CCN3C[C@H](C)C(=O)O)NC(c2nccs2)=N[C@H]1c1cccc(F)c1Cl (single isomer, unassigned) [Compound 132B, 3-((cis)-4-((6-(2-Chloro-3-fluorophenyl)-5-(methoxycarbonyl)-2-(thiazol-2-yl)-3,6-dihydropyrimidin-4-yl)methyl)-6,6-difluorohexahydropyrrolo[3,2-b]pyrrol-1(2H)-yl)-2-methylpropanoic acid]	0.0107	71.8	–
COC(=O)C1=C(CN2CC(F)(F)[C@H]3[C@@H]2CCN3C[C@@H](C)C(=O)O)NC(c2nccs2)=N[C@H]1c1ccc(F)cc1Cl (single isomer, unassigned) [Compound 133A, 3-((cis)-4-((6-(2-Chloro-4-fluorophenyl)-5-(methoxycarbonyl)-2-(thiazol-2-yl)-3,6-dihydropyrimidin-4-yl)methyl)-6,6-difluorohexahydropyrrolo[3,2-b]pyrrol-1(2H)-yl)-2-methylpropanoic acid]	< 0.0005	41.7	–
COC(=O)C1=C(CN2CC(F)(F)[C@H]3[C@@H]2CCN3C[C@@H](C)C(=O)O)NC(c2nccs2)=N[C@H]1c1ccc(F)c(F)c1Cl (single isomer, unassigned) [Compound 134A, 3-((cis)-4-((6-(2-chloro-3,4-difluorophenyl)-5-(methoxycarbonyl)-2-(thiazol-2-yl)-3,6-dihydropyrimidin-4-yl)methyl)-6,6-difluorohexahydropyrrolo[3,2-b]pyrrol-1(2H)-yl)-2-methylpropanoic acid]	< 0.0005	26.9	–
COC(=O)C1=C(CN2CC(F)(F)[C@H]3[C@@H]2CCN3C[C@H](C)C(=O)O)NC(c2nccs2)=N[C@H]1c1ccc(F)c(F)c1Cl (single isomer, unassigned) [Compound 134B, 3-((cis)-4-((6-(2-chloro-3,4-difluorophenyl)-5-(methoxycarbonyl)-2-(thiazol-2-yl)-3,6-dihydropyrimidin-4-yl)methyl)-6,6-difluorohexahydropyrrolo[3,2-b]pyrrol-1(2H)-yl)-2-methylpropanoic acid]	0.0043	24.2	–
CCOC(=O)C1=C(CN2CC(F)(F)[C@H]3[C@@H]2CCN3C[C@@H](C)C(=O)O)NC(c2nccs2)=N[C@H]1c1ccc(F)cc1Cl (single isomer, unassigned) [Compound 135A, 3-((cis)-4-((6-(2-chloro-4-fluorophenyl)-5-(ethoxycarbonyl)-2-(thiazol-2-yl)-3,6-dihydropyrimidin-4-yl)methyl)-6,6-difluorohexahydropyrrolo[3,2-b]pyrrol-1(2H)-yl)-2-methylpropanoic acid]	0.0024	25.9	–
